Consider 2 molecules from patent publication US20130177531A1, “Inhibitors of Serine Proteases” (Vertex Pharmaceuticals Incorporated, priority 2005, published 2013).

Data set [1] is described as follows: Oral bioavailability and isomer interconversion of R and S isomers at C* in rats. Details: species or system male Sprague Dawley rats. As to conditions: rat; for bioavailability / half-life: 30 mg/kg. On the procedure:
Three groups of male Sprague Dawley rats (n=6-7/group) were orally administered a compound of formula I wherein the mixture comprised about 92% R isomer at position C* and about 8% S isomer at position C*; a mixture that was about 7% R isomer at position C* and about 93% S isomer at position C*; or a compound of formula I wherein the mixture was about 54% R isomer at position C* and about 46% S isomer at position C*; at a nominal dose of 30 mg/kg. Serial blood samples were collected up to 24 hours (hr) post dose. Derived plasma samples (100 μL) were acidified by the addition of 5 μL of formic acid to prevent in vitro interconversion. The determination of concentrations of both the R isomer and the S isomer, at position C*, in plasma and in dose solutions was conducted using a chiral liquid chromatography/mass spectrometry (LC/MS/MS, e.g., LC/tandem mass spectroscopy) method. The formulations of the solid dispersions containing either 10% of the R:S mixture, the R isomer, or the S isomer were prepared according to Table 4. […] The sodium lauryl sulfate and PVP were added to the flask containing the drug solution and were then mixed until dissolved. The mixtures were dried under Roto-vap for about 15 min. After a dry powder was obtained, the solid was then scraped from the flask and transferred to a glass container. The solid was dried for 24 hr at 55° C. in a vacuum oven with nitrogen bleed. The dry solid was then milled by mortar and pestle and was stored in a tightly capped vial. […] Male Sprague Dawley rats (Charles River Laboratories, Kingston, R.I.; n=6-7/group) were used in the study. The day before dosing, the rats were cannulated in the carotid artery for collecting blood samples. […] The experiments were performed with a parallel study design as 6 separate single dose studies as described in Table 5. […] The blood samples were collected in tubes containing potassium EDTA and were centrifuged to plasma within 15 min of collection. A diluted solution of formic acid was prepared by diluting 1 mL of formic acid with 9 mL of water. A total of 5 micro liters (μL) of this diluted formic acid was placed into each plasma tube. An aliquot of plasma (100 μL per tube) was placed into appropriately labeled tubes containing the formic acid, and the acidified plasma was stored frozen at −70° C. until analysis. The acidification step was implemented to prevent in vitro interconversion. Referring to Table 6, several bioavailability parameters for compounds undergoing reversible metabolism could be estimated by the following descriptions.

A short description of data set [2]: in vivo. The following applies: male, Sprague-Dawley, rat, iv.
Method: The intravenous pharmacokinetics of compounds of formula I were evaluated in rats and dogs. A group of 3 male Sprague-Dawley rats weighing between 250 to 300 g was administered an intravenous bolus dose of 0.95 mg/kg of an S-diastereomer of formula I, in a vehicle consisting of 15% ethanol, 10% dimethyl isosorbide, 35% PEG400 and 40% D5W (5% dextrose in water). Serial blood samples were collected in heparinized tubes at 0 (pre-dose), 0.083, 0.167, 0.25, 0.5, 1, 1.5, 2, 3, 4, 6, and 8 h, post-dose administration. […] For oral studies in rats and dogs, an S-diastereomer compound of formula I was formulated in polyvinylpyrrolidone (PVP) K30 plus 2% sodium lauryl sulfate and then dosed as an oral gavage. A group of 3 male Sprague-Dawley rats (250 to 300 g, Harlan, Md.) was dosed orally with 40 mg/kg of the compound, and a group of 3 male Beagle dogs (10.9-12.0 kg) was administered an oral dose of 13.2 mg/kg of the compound. In both oral studies, blood samples were taken at pre-dose, 0.25, 0.5, 1, 1.5, 2, 3, 4, 6, 8, 12, and 24 h following dose administration. […] Samples obtained from the rat intravenous study were subjected to a chiral liquid chromatography/mass spectrometry (LC/MS/MS) analysis, while samples of all other studies were analyzed using a non-chiral LC/MS/MS method. […]

As to `CCC[C@@H](NC(=O)[C@@H]1[C@H]2CCC[C@H]2CN1C(=O)[C@@H](NC(=O)[C@@H](NC(=O)c1cnccn1)C1CCCCC1)C(C)(C)C)C(=O)C(=O)NC1CC1` [R isomer at C*, (1S,3aR,6aS)-2-[(2S)-2-[[(2S)-2-cyclohexyl-1-oxo-2-[(pyrazinylcarbonyl)amino]ethyl]amino]-3,3-dimethyl-1-oxobutyl]-N-[(1R)-1-[2-(cyclopropylamino)-1,2-dioxoethyl]butyl]octahydro-cyclopenta[c]pyrrole-1-carboxamide], in data set [1] (male, Sprague Dawley, in vivo), the “FR+SR, estimated total bioavailability based on combined exposure to the R and S isomers following a dose of the R isomer” value is listed as “about 98%”; the “mean (±SD) Tmax for the R isomer” value is reported as 2.11 (−1.24) hr; the bioavailability (in general, the share of a dose that reaches the circulation, judged against a reference dose that is usually intravenous) was determined as 80.6%; the half-life (commonly the time in which the quantity being followed falls by half) is 2.18 h. Also, the “in vivo isomer conversion at position C* (R to S versus S to R)” value in data set [1] was “more prominent”. Besides, the half-life in data set [2] is 0.75 h.
With `CCC[C@H](NC(=O)[C@@H]1[C@H]2CCC[C@H]2CN1C(=O)[C@@H](NC(=O)[C@@H](NC(=O)c1cnccn1)C1CCCCC1)C(C)(C)C)C(=O)C(=O)NC1CC1` [S isomer at C*, (1S,3aR,6aS)-2-[(2S)-2-[[(2S)-2-cyclohexyl-1-oxo-2-[(pyrazinylcarbonyl)amino]ethyl]amino]-3,3-dimethyl-1-oxobutyl]-N-[(1S)-1-[2-(cyclopropylamino)-1,2-dioxoethyl]butyl]octahydro-cyclopenta[c]pyrrole-1-carboxamide], in data set [1] (male, Sprague Dawley, in vivo), the DN AUCINF of the S isomer is 140 ng·h/mL, the “mean (±SD) Tmax for the S isomer” value is 2.52 (±2.19) hr, the bioavailability came out at 42.9% and the half-life was 3.6 h. Moreover, in data set [2], the half-life is 1.73 h.
